Source: patent US10919890B2, “Salts and pharmaceutical compositions thereof for the treatment of inflammatory disorders” (GALAPAGOS NV, priority 2014, dated 2021)
Counter-ions that a name gives are not always drawn.

Key:
[1] = Complementary salt analysis (stability, hygroscopicity); type: physicochemical; settings: for Hygroscopicity: salt from Protocol 4; for Salt stability: stability evaluation 1 week at 40° C./75% Relative humidity
[2] = Dissolution in solvents (salt Protocol 1); type: physicochemical; settings: DCM, up to 20 relative volumes, agitated at 50° C.
Excerpt: The solvent is selected from isopropanol, ethanol, methanol, isopropyl acetate, THF, TBME, acetone, methyl ethyl ketone, DCM, and MeCN.

[3] = Dog bioavailability study; design: species or system beagle dogs; settings: in vivo, po, 25 mg/kg
Experimental: The dogs are not fasted before dosing, and have free access to water. Every day of the treatment, a half food ration is provided after the T0 blood sampling, 8 to 17 min before treatment, and the second half ration is given just after dosing or 1 h after treatment for period 2. A 3 days washout period is ensured between treatments. […] The capsule composition is described in Table XX below. The capsules are administered orally with water (5-10 mL), to provide good oesophageal transit. Each animal is checked at least once daily. Blood is collected from the jugular vein into lithium heparinised tubes at T0 (before food administration) and then at 1 […], and 24 h post treatment. Plasma is then obtained from blood by centrifugation (2500 g for 10 min at 4° C.), and stored at -20° C. until analysis. […] After vortex mixing and centrifugation at 4° C., the supernatants are diluted with a 0.5 volume of HPLC grade water in a midi-eppendorf 96-well plate. The plate is sealed and shaken to ensure sample homogeneity prior to analysis. […] Pharmacokinetic analysis is performed using WinNonlinTM software version 5.3, using concentrations from individual animals. Non-compartmental analysis is applied to determine the PK parameters (Cmax, Tmax, AUC0-last, t1/2, etc. . . . ) Concentrations below the limit of detection are set to zero for descriptive statistics and PK parameter calculations.

Structure (SMILES) | Hygroscopicity [1] | Salt stability [1] | other results
Cl.O=C(Nc1nc2cccc(-c3ccc(CN4CCS(=O)(=O)CC4)cc3)n2n1)C1CC1 [Compound 1 HCl salt] | non-hygroscopic | stable | –
O=C(Nc1nc2cccc(-c3ccc(CN4CCS(=O)(=O)CC4)cc3)n2n1)C1CC1.O=C(O)/C=C\C(=O)O [Compound 1 maleic acid salt] | – | stable | –
O=C(O)/C=C\C(=O)O [Compound 1 maleic acid salt] | non-hygroscopic | – | –
O=C(Nc1nc2cccc(-c3ccc(CN4CCS(=O)(=O)CC4)cc3)n2n1)C1CC1 [Compound 1, cyclopropane carboxylic acid {5-[4-(1,1-dioxo-thiomorpholin-4-ylmethyl)-phenyl]-[1,2,4]triazolo[1,5-a]pyridin-2-yl}-amide] | – | – | Dissolution in solvent [2]: almost full dissolution
Cl.O.O.O.O=C(Nc1nc2cccc(-c3ccc(CN4CCS(=O)(=O)CC4)cc3)n2n1)C1CC1 [Compound 1.HCl.3H2O] | – | – | Tmax [3]: 2.0 h
